Data: the supplement of paper PMC8617591

How the values were obtained:
[1] = test system: Mycobacterium tuberculosis Erdman (autoluminescent); assay: total FIC50 (Loewe) at 50% inhibition, three-drug combination (log2); higher = more antagonistic
Experimental: (§1)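 DiaMOND equipotent three-drug combination dose responses (10 doses, 1.5- or 2-fold spacing, centred on IC90) against autoluminescent M. tuberculosis Erdman in 8 in vitro models. Read-out is OD600, or luminescence for the intracellular and dormancy models, normalised to untreated wells. Hill-fit Einf, AUC25 and GRinf are potency metrics; FIC50 and FIC90 are total Loewe fractional inhibitory concentrations as log2 (negative = synergy).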

[2] = test system: Mycobacterium tuberculosis Erdman (autoluminescent); assay: total FIC90 (Loewe) at 90% inhibition, three-drug combination (log2); higher = more antagonistic
Experimental: as §1

[3] = test system: Mycobacterium tuberculosis Erdman (autoluminescent); assay: Einf, fitted maximum growth inhibition of three-drug combination (fraction); higher = stronger maximal inhibition
Experimental: as §1

[4] = test system: Mycobacterium tuberculosis Erdman (autoluminescent); assay: AUC25, normalised area under dose response up to IC25 (three-drug combination) (fraction (0-1)); higher = more potent at low dose
Experimental: as §1

[5] = test system: Mycobacterium tuberculosis Erdman (autoluminescent); assay: GRinf, maximum normalised growth rate inhibition (three-drug combination) (unitless (-1 to 1)); higher = less effect (negative = killing)
Experimental: as §1

COc1nc2ccc(Br)cc2cc1[C@@H](c1ccccc1)[C@@](O)(CCN(C)C)c1cccc2ccccc12 [bedaquiline] + CC[C@@H](CO)NCCN[C@@H](CC)CO [ethambutol] + NNC(=O)c1ccncc1 [isoniazid]
Details	AUC25, [4]	Einf, [3]	GRinf, [5]	total FIC50, [1]	total FIC90, [2]
in vitro model: acidic pH 5.7, time point: constant (~7 days, model-specific)	0.112	0.858	-0.682	0.0458	–
in vitro model: acidic pH 5.7, time point: terminal (~4-5 doublings, model-specific)	0.0484	0.953	-0.339	0.537	-0.855
in vitro model: intracellular J774, time point: constant = terminal	–	0.988	-0.401	–	-0.307

Details	AUC25, [4]	Einf, [3]	GRinf, [5]	total FIC50, [1]	total FIC90, [2]
in vitro model: butyrate, time point: constant (~7 days, model-specific)	0.0535	0.943	-0.0949	0.537	–
in vitro model: butyrate, time point: terminal (~4-5 doublings, model-specific)	0.0425	0.975	-0.105	0.472	-0.153
in vitro model: cholesterol 0.05 mM, time point: constant (~7 days, model-specific)	0.0741	0.695	-0.191	0.858	–
in vitro model: cholesterol 0.05 mM, time point: terminal (~4-5 doublings, model-specific)	0.0839	0.891	-0.205	1.12	0.995
in vitro model: cholesterol-high 0.2 mM, time point: constant (~7 days, model-specific)	0.026	0.998	-0.751	1.05	–
in vitro model: cholesterol-high 0.2 mM, time point: terminal (~4-5 doublings, model-specific)	0.0384	1	-0.702	1.09	0.96
in vitro model: dormancy (butyrate + nitrate, low O2), time point: constant (~7 days, model-specific)	0.121	0.849	0.491	1.04	–
in vitro model: dormancy (butyrate + nitrate, low O2), time point: terminal (~4-5 doublings, model-specific)	0.0982	0.987	-0.0322	0.301	0.198
in vitro model: standard 7H9 glycerol, time point: constant = terminal	0.0658	0.957	-0.0846	0.398	–
in vitro model: valerate, time point: constant (~7 days, model-specific)	0.116	0.912	-0.0812	0.656	–
in vitro model: valerate, time point: terminal (~4-5 doublings, model-specific)	0.0717	0.954	-0.0498	0.744	0.58

COc1nc2ccc(Br)cc2cc1[C@@H](c1ccccc1)[C@@](O)(CCN(C)C)c1cccc2ccccc12 [bedaquiline] + CC[C@@H](CO)NCCN[C@@H](CC)CO [ethambutol] + O=[N+]([O-])c1cn2c(n1)OC[C@@H](OCc1ccc(OC(F)(F)F)cc1)C2 [pretomanid]
Details	AUC25, [4]	Einf, [3]	GRinf, [5]	total FIC50, [1]	total FIC90, [2]
in vitro model: acidic pH 5.7, time point: constant (~7 days, model-specific)	0.0902	0.854	-0.482	0.869	–
in vitro model: acidic pH 5.7, time point: terminal (~4-5 doublings, model-specific)	0.0847	0.982	-0.316	0.639	0.498
in vitro model: intracellular J774, time point: constant = terminal	–	0.938	-0.203	–	-1.11

Details	AUC25, [4]	Einf, [3]	GRinf, [5]	total FIC50, [1]	total FIC90, [2]
in vitro model: butyrate, time point: constant (~7 days, model-specific)	0.059	0.925	-0.0548	0.544	–
in vitro model: butyrate, time point: terminal (~4-5 doublings, model-specific)	0.0482	0.966	-0.0543	0.327	-0.226
in vitro model: cholesterol 0.05 mM, time point: constant (~7 days, model-specific)	0.0996	0.781	-0.351	0.964	–
in vitro model: cholesterol 0.05 mM, time point: terminal (~4-5 doublings, model-specific)	0.0849	0.927	-0.277	1.08	1.26
in vitro model: cholesterol-high 0.2 mM, time point: constant (~7 days, model-specific)	0.0639	0.893	-0.294	1.17	–
in vitro model: cholesterol-high 0.2 mM, time point: terminal (~4-5 doublings, model-specific)	0.0509	1	-0.825	1.06	1.39
in vitro model: dormancy (butyrate + nitrate, low O2), time point: constant (~7 days, model-specific)	0.123	0.894	0.353	0.967	–
in vitro model: dormancy (butyrate + nitrate, low O2), time point: terminal (~4-5 doublings, model-specific)	0.115	0.997	-0.265	0.317	0.645
in vitro model: standard 7H9 glycerol, time point: constant = terminal	0.0898	0.972	-0.0976	0.231	–
in vitro model: valerate, time point: constant (~7 days, model-specific)	0.139	0.897	-0.0325	-0.239	–
in vitro model: valerate, time point: terminal (~4-5 doublings, model-specific)	0.0867	0.948	-0.0164	0.257	0.215

COc1nc2ccc(Br)cc2cc1[C@@H](c1ccccc1)[C@@](O)(CCN(C)C)c1cccc2ccccc12 [bedaquiline] + CO[C@H]1/C=C/O[C@@]2(C)Oc3c(C)c(O)c4c(O)c(c(/C=N/N5CCN(C6CCCC6)CC5)c(O)c4c3C2=O)NC(=O)/C(C)=C\C=C\[C@H](C)[C@H](O)[C@@H](C)[C@@H](O)[C@@H](C)[C@H](OC(C)=O)[C@@H]1C [rifapentine] + CO[C@H]1/C=C/O[C@@]2(C)Oc3c(C)c(O)c4c(O)c(c(/C=N/N5CCN(C)CC5)c(O)c4c3C2=O)NC(=O)/C(C)=C\C=C\[C@H](C)[C@H](O)[C@@H](C)[C@@H](O)[C@@H](C)[C@H](OC(C)=O)[C@@H]1C [rifampicin]
Details	AUC25, [4]	Einf, [3]	GRinf, [5]	total FIC50, [1]	total FIC90, [2]
in vitro model: acidic pH 5.7, time point: constant (~7 days, model-specific)	0.0935	0.893	-0.273	0.903	–
in vitro model: acidic pH 5.7, time point: terminal (~4-5 doublings, model-specific)	0.082	0.985	-0.265	0.765	0.574
in vitro model: intracellular J774, time point: constant = terminal	–	0.925	-0.129	–	0.499

Details	AUC25, [4]	Einf, [3]	GRinf, [5]	total FIC50, [1]	total FIC90, [2]
in vitro model: butyrate, time point: constant (~7 days, model-specific)	0.119	0.965	-0.195	0.199	-0.101
in vitro model: butyrate, time point: terminal (~4-5 doublings, model-specific)	0.102	0.987	-0.131	0.144	0.454
in vitro model: cholesterol 0.05 mM, time point: constant (~7 days, model-specific)	0.118	0.73	-0.233	0.198	–
in vitro model: cholesterol 0.05 mM, time point: terminal (~4-5 doublings, model-specific)	0.0915	0.927	-0.216	0.249	0.0937
in vitro model: cholesterol-high 0.2 mM, time point: constant (~7 days, model-specific)	0.0646	0.957	-0.49	0.444	-0.0134
in vitro model: cholesterol-high 0.2 mM, time point: terminal (~4-5 doublings, model-specific)	0.0574	0.998	-0.604	0.544	0.3
in vitro model: dormancy (butyrate + nitrate, low O2), time point: constant (~7 days, model-specific)	0.0847	0.905	0.174	0.141	0.723
in vitro model: dormancy (butyrate + nitrate, low O2), time point: terminal (~4-5 doublings, model-specific)	0.0726	0.982	-0.165	0.273	0.653
in vitro model: standard 7H9 glycerol, time point: constant = terminal	0.0706	0.924	-0.0268	0.258	0.35
in vitro model: valerate, time point: constant (~7 days, model-specific)	0.046	0.873	-0.0628	0.679	–
in vitro model: valerate, time point: terminal (~4-5 doublings, model-specific)	0.028	0.951	-0.0371	0.579	0.302
